Converted amounts (≈) assume the structure as drawn. Read-outs that look alike come from different tables or passages of the source.
How the values were obtained:
[1] = Solubility in biological buffer solutions; assay type: physicochemical
Procedure: Levels of dissolved compound/form were analysed by HPLC, with the following conditions: • Column: Chromolith RP-18e 100-3 mm • Solvent A: water/formic acid (999:1; v/v) • Solvent B: acetonitrile/formic acid (999:1; v/v) • Injection volume: 5 μL • Column temperature: 37° C. • HPLC-Gradient: […]

human ATR/ATRIP = target: T1, human ATR/ATRIP (Homo sapiens, UniProt Q13535); assay: ATR/ATRIP kinase assay; assay type: biochemical
T1 construct: human ATR, full length, GenBank ID: NM_001184.3; host or cells: mammalian cell line (ATR/ATRIP co-expressed); Sf21 insect cells (p53)
T1 sequence (Q13535 whole entry): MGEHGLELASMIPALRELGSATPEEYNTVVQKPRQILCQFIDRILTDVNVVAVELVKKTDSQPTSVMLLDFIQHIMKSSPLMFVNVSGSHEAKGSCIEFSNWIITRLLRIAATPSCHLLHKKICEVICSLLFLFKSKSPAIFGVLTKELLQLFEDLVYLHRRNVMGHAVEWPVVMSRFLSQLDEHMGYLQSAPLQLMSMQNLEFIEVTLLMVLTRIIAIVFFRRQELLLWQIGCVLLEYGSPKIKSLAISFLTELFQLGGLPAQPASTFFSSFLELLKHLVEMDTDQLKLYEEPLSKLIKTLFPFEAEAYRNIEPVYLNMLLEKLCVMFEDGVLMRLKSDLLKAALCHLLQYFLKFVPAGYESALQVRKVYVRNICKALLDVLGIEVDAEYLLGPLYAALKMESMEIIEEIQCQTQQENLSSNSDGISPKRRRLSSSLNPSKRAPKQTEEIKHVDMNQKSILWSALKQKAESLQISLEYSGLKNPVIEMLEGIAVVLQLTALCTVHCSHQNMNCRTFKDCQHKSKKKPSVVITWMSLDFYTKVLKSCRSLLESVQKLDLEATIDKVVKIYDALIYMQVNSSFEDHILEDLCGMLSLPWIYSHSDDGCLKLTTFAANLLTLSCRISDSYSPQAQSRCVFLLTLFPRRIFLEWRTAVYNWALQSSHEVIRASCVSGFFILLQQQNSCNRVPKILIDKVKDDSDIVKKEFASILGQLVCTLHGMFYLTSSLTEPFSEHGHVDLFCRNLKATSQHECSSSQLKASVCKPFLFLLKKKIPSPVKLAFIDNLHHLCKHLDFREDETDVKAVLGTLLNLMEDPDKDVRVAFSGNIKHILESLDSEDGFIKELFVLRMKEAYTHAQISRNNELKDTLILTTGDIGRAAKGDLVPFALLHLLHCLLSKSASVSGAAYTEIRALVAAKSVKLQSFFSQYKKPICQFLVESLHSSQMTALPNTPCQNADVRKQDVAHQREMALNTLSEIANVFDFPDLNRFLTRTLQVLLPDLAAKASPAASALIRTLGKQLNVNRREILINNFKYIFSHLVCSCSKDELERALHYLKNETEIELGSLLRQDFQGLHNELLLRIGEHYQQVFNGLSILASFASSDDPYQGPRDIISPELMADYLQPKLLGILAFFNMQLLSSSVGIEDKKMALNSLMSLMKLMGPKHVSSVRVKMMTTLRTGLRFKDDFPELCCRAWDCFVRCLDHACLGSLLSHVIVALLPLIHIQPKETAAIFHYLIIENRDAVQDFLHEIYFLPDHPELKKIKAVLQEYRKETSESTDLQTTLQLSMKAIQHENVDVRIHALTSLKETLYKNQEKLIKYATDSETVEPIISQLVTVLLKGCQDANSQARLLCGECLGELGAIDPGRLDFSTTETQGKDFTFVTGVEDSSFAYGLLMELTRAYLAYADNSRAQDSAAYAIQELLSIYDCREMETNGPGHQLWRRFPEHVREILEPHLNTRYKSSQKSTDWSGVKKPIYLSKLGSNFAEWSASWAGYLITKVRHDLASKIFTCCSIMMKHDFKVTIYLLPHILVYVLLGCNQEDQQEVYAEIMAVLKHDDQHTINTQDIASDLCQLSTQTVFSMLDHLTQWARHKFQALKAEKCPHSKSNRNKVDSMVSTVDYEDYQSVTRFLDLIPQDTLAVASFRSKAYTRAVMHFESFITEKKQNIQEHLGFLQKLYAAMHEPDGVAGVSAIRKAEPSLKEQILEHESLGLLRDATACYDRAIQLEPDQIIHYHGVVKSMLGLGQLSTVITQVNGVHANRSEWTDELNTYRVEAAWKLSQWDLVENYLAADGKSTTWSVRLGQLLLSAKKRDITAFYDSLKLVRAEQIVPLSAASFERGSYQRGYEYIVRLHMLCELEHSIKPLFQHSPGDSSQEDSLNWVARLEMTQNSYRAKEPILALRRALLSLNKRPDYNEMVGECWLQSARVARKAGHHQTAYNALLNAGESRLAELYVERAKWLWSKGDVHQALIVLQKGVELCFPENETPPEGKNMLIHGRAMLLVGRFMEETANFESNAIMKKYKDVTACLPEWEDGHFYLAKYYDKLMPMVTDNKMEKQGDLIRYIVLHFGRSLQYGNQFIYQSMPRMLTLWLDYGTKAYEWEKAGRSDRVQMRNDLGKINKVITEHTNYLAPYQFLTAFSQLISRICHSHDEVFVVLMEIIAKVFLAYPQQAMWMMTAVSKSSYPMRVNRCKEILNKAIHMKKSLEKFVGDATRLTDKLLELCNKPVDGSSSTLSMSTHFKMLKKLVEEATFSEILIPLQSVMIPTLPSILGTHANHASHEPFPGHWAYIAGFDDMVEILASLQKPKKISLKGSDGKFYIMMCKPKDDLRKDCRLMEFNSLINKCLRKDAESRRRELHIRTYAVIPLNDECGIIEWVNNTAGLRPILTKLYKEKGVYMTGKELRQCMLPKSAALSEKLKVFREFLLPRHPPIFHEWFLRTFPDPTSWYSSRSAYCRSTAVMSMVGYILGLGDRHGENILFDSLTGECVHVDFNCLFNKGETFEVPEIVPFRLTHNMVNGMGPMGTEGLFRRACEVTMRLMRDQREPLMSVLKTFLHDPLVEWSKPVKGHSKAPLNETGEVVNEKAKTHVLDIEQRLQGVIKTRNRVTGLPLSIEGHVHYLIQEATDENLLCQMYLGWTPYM
T1 sequence (Q8WXE1 whole entry partner): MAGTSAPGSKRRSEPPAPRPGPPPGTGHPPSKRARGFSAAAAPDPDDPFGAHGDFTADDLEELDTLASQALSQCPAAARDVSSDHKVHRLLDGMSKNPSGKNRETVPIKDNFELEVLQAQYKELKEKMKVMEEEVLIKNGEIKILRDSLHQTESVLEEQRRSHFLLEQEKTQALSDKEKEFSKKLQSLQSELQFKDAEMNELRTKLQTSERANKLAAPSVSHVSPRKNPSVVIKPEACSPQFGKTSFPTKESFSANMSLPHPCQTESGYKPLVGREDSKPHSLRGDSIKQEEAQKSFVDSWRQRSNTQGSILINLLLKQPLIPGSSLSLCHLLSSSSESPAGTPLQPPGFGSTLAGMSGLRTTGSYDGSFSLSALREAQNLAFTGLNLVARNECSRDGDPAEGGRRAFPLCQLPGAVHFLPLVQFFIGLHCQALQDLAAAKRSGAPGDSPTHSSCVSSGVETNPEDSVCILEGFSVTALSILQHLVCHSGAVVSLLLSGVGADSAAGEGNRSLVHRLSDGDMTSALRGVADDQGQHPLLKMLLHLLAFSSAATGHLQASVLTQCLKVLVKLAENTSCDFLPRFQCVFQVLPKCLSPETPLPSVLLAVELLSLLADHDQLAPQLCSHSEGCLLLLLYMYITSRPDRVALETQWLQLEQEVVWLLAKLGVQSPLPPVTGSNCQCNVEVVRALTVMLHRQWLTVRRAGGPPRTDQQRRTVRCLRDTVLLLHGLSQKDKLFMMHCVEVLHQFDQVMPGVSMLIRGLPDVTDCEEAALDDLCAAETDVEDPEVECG
Procedure: The IC50 value was determined by an ATR/ATRIP enzymatic assay. The assay comprises two steps: the enzymatic reaction and the detection step. First, a mixture of ATR/ATRIP protein (Ataxia Telangiectasia and Rad3-related protein/ATR interacting protein), the compound in question at different concentrations, p53 as substrate protein and adenosine triphosphate (ATP) are incubated in assay buffer. ATR phosphorylates p53 at Ser15 and other residues. The amount of phosphorylated p53 is then detected using specific antibodies and the TR-FRET assay technology.
In detail: The ATR/ATRIP enzymatic assay is performed as a TR-FRET-(HTRF™, Cisbio Bioassays) based 384-well assay. In a first step, purified human recombinant ATR/ATRIP (human ATR, full length, GenBank ID: NM_001184.3, and human ATRIP, full length, GenBank ID AF451323.1, co-expressed in a mammalian cell line) is incubated in assay buffer for 15 minutes at 22° C. with test compound at different concentrations or without test compound (as a negative control). The assay buffer contains 25 mM HEPES pH 8.0, 10 mM Mg(CH3COO)2, 1 mM MnCl2, 0.1% BSA, 0.01% Brij® 35, and 5 mM dithiothreitol (DTT). […] The generation of phosphorylated p53 as a result of the ATR mediated reaction in the presence of ATP is detected by using specific antibodies [labeled with the fluorophores europium (Eu) as donor and d2 as acceptor (Cisbio Bioassays)] enabling FRET. […] Following signal development for 2 h the plates are analyzed in an EnVision (PerkinElmer) microplate reader using the TRF mode with laser excitation. Upon excitation of the donor europium at 340 nm the emitted fluorescence light of the acceptor d2 at 665 nm as well as from the donor Eu at 615 nm are measured. The amount of phosphorylated p53 is directly proportional to the ratio of the amounts of emitted light i.e. the ratio of the relative fluorescence units (rfu) at 665 nm and 615 nm. […] In particular, IC50 values are determined in the usual manner by fitting a dose-response curve to the data points using nonlinear regression analysis.

DNA-PK protein complex = DNA-PK protein complex (Homo sapiens, UniProt P78527); assay: DNA-PK assay (HTRF); assay type: biochemical
Procedure: The kinase assay was performed as HTRF® based 384-well assay. In a first step DNA-PK protein complex was incubated with or without test compound for 15 min at 22° C. After addition of the STK-substrate 1-biotin (Cisbio), Mg-ATP, DNA and staurosporine the reaction mixture was incubated for 60-80 min (depending on activity of DNA-PK protein complex) at 22° C. An Echo 555 (Labcyte) was used for dispensing of compound solutions. The assay buffer consisted of 25 mM HEPES PH 7.4, 11 mM MgCl2, 80 mM KCl, 0.45 mM EDTA, and 0.5 mM EGTA, and contained 1 mM dithiothreitol (DTT), 0.17% BSA, and 0.01% Tween® 20. The pharmacologically relevant volume was 5 μl. The final concentrations in the assay during incubation of the reaction mixture were 50-100 ng/well DNA-PK protein complex (depending on activity of DNA-PK protein complex), 1 μM STK-substrate 1-biotin, 10 μM Mg-ATP, 80 ng/well DNA from calf thymus, and 1 μM staurosporine. The enzymatic reaction was stopped by addition of EDTA. The generation of phosphorylated STK-substrate 1-biotin as result of the DNA-PK mediated reaction was detected via a specific anti-phospho STK-antibody (Cisbio) labeled with Europium (Eu) as donor and streptavidin labeled with XL665 (Cisbio) as acceptor allowing FRET. For this purpose, 4 μl of antibody- and streptavidin-containing stop solution (12.5 mM HEPES pH 8.0, 125 mM EDTA, 30 mM sodium chloride, 300 mM potassium fluoride, 0.006% Tween-20, 0.005% Brij® 35, 0.179 nM anti-phospho-STK antibody, 160 nM Streptavidin-XL665) were added to the reaction mixture. Following signal development for 1 h the plates were analyzed on a Rubystar or Pherastar microplate reader (BMG Labtech). The amount of phosphorylated substrate was directly proportional to the ratio of fluorescence units (excitation wavelength 337 nm) at the emission wavelengths 665 nm (Phosphopeptide-sensitive wavelength/emission of XL665) to the units at 620 nm (reference wavelength Europium). IC50-values were calculated using Genedata Screener® software. […]

[2] = FaSSIF, pH 6.5, fassif, FaSSiF, pH 6.5, read-out: Solubility FaSSiF, pH 6.5
[3] = FeSSIF, pH 5, fessif, FeSSiF, pH 5.0, read-out: Solubility FeSSiF, pH 5.0
[4] = PBS, pH 7.4, aqueous buffer, PBS, pH 7.4, read-out: Solubility PBS, pH 7.4

Solubility FaSSiF, pH 6.5 ([1]; FaSSiF, pH 6.5) [μg/ml] | Solubility FeSSiF, pH 5.0 ([1]; FeSSiF, pH 5.0) [μg/ml] | Solubility PBS, pH 7.4 ([1]; PBS, pH 7.4) [μg/ml] | IC50 (human ATR/ATRIP) [nM] | IC50 (DNA-PK protein complex) [nM] | solubility [1, 2] [µg/mL] | solubility [1, 3] [µg/mL] | solubility [1, 4] [µg/mL] | Compound
216 | ~800 | ~100 | > 28000 | 1290 | – | – | – | COc1cc2ncc3c(c2cc1-c1cn(C)nc1C)n(-c1c(F)cncc1OC)c(=O)n3C (single isomer, unassigned) [Compound 2, 8-(1,3-Dimethyl-1H-pyrazol-4-yl)-1-(Ra)-(3-fluoro-5-methoxy-pyridin-4-yl)-7-methoxy-3-methyl-1,3-dihydro-imidazo[4,5-c]quinolin-2-one]
– | – | – | 5060 | 980 | 52 (≈ 116 µM) | 201 (≈ 448 µM) | 19 (≈ 42.4 µM) | COc1cc2ncc3c(c2cc1-c1cn(C)nc1C)n(-c1c(F)cncc1OC)c(=O)n3C [Compound Y, 8-(1,3-dimethyl-1H-pyrazol-4-yl)-1-(3-fluoro-5-methoxypyridin-4-yl)-7-methoxy-3-methyl-1,3-dihydroimidazo[4,5-c]quinolin-2-one, reference compound]
– | – | – | 10000 | 600 | 242 (≈ 540 µM) | 731 (≈ 1630 µM) | ~100 (≈ 223 µM) | COc1cc2ncc3c(c2cc1-c1cn(C)nc1C)n(-c1c(F)cncc1OC)c(=O)n3C (single isomer, unassigned) [Compound 1, 8-(1,3-Dimethyl-1H-pyrazol-4-yl)-1-(Sa)-(3-fluoro-5-methoxy-pyridin-4-yl)-7-methoxy-3-methyl-1,3-dihydro-imidazo[4,5-c]quinolin-2-one]
